# Laboratory results published in patent US12209142B2, “SARS-CoV-2 epitope-targeted peptide immunostimulants” (Institute for Systems Biology, priority 2020, dated 2025).
# Entries after “also recorded” stand apart in the source; their conditions may differ. Where a SMILES comes first, the peptide text is derived from it. Bridges are numbered along the chain shown (N, C = ends). Triazole bridges read from a SMILES are 1,4-linked. [ ]: non-standard residue; d: D form. The star is where a group is joined. Biotin = O=C1N[C@H]2[C@H](CS[C@H]2CCCCC(=O)*)N1; Lys(N3) = [N-]=[N+]=NCCCC[C@H](N)C(=O)O; PEG5 = NCCOCCOCCOCCOCCOCCC(=O)O; Pra = C#CC[C@H](N)C(=O)O
# What was measured:
# [1] = tested on: Salmonella typhimurium (S. typhimurium) cells; experiment: Whole-cell ELISA of biotinylated PCC binding; settings: biotinylated PCC at 5 μM
# Description: Whole-cell ELISAs. Detection of the binding of biotinylated PCCs to bacterial surface was performed as follows. 108 bacteria from a culture grown overnight were used for each test. Bacteria were incubated with PBS containing 1% BSA (PBS-BSA) for 1 h at 37° C., washed once with PBS, and then incubated with 5 μM of the biotinylated PCC in PBS-BSA for 1 h at 37° C. After washing thrice with PBS to remove unbound PCCs, bacteria were incubated with Streptavidin-HRP (1:1000) for 1 h at 37° C. Bacteria were washed thoroughly and the TMB reagent was added until visible coloration was observed. The reaction was quenched using 2N H2SO4 and absorbance was measured at 450 nm.
# [2] = tested on: MrkA-expressing K. pneumoniae cells; experiment: Whole-cell ELISA of biotinylated PCC binding
# [3] = tested on: K. pneumoniae cells (strain BAA 1705); experiment: Gentamicin protection assay: phagocytosis and opsonophagocytic killing (OPK) by macrophages; type: cell-based, Klebsiella pneumoniae
# Outline: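 Strain BAA 1705 treated with DNP-conjugated EPIs (5 μM), opsonized with anti-DNP antibody, then given to murine bone-marrow macrophages at MOI 50 for 0.5 h at 37° C. Extracellular bacteria killed with gentamicin (100 μg/ml). Macrophages lysed at 1 h (phagocytosis) and 24 h (OPK); intracellular CFU counted on LB agar, in triplicate.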
# [4] = strain BAA 1705, PCC 5 μM or lower
structure (smiles),measurement,setting,value
CC(C)C[C@@H]1NC(=O)[C@@H](NC(=O)CCOCCOCCOCCOCCOCCNC(=O)CCCC[C@@H]2SC[C@@H]3NC(=O)N[C@@H]32)Cc2cn(nn2)CCCC[C@@H](C(N)=O)NC(=O)[C@H](Cc2ccccc2)NC(=O)[C@H](Cc2ccccc2)NC(=O)[C@H](Cc2ccccc2)NC(=O)[C@H](CC(C)C)NC1=O [cy(LLFFF)] ({Biotin-PEG5}-[Pra]LLFFF[Lys(N3)]-NH2; triazole 1-7; N-terminus and C-terminus assumed),"whole-cell ELISA signal, S. typhimurium",[1],small absorbances; also recorded: only weak signals
same,"whole-cell ELISA signal, MrkA-knockout KPPR1",[2]; MrkA/B/C knockout KPPR1,ELISA intensities comparable to baseline
same,"whole-cell ELISA signal, K. pneumoniae BAA 1705 and BAA 2146",[2]; biotinylated PCC at 5 μM,high absorbance; also recorded: strong signal; also recorded: binds two strains of MrkA-expressing K. pneumoniae cells with excellent selectivity versus E. coli and S. typhimurium
same,"whole-cell ELISA signal at high PCC concentration, LB or G-CAA","[2]; strain BAA 1705, 50 μM PCC",strong and comparable ELISA signals
same,"whole-cell ELISA 450 nm absorbance, cells cultured in G-CAA (high MrkA)",[2]; [4],strong absorbances
same,"whole-cell ELISA 450 nm absorbance, cells cultured in LB (low MrkA)",[2]; [4],near-baseline absorbances
same,"whole-cell ELISA signal, wild type KPPR1","[2]; wild type KPPR1 (ATCC 43816), G-CAA media, 5 μM down to 5 nM",strong signals; also recorded: binds wild type MrkA-expressing KPPR1 cells
same,"CFU at 6 hrs, DNP-conjugated EPI and anti-DNP antibody",[3]; macrophages harvested at 6 hrs,"more than 80,000 CFU"
same,"cell counts at 6 hrs, DNP-conjugated EPI without antibody",[3]; macrophages harvested at 6 hrs,"~35,000"
same,colony counts at 24 h (OPK),[3]; macrophages harvested at 24 h,little to no cell counts
